What was measured:
[1] = tested on: Pythium ultimum; assay: Pythium ultimum / liquid culture (seedling damping off); format: cell-based; details: Globisporangium ultimum; 200 ppm; potato dextrose broth, 24° C., 2-3 days after application; read-out: disease control (inhibition of growth determined photometrically)
[2] = tested on: Mycosphaerella arachidis (Cercospora arachidicola); assay: Mycosphaerella arachidis (Cercospora arachidicola) / liquid culture (early leaf spot); format: cell-based; details: PDB potato dextrose broth, 24° C., 4-5 days after application, read-out: disease control (inhibition of growth determined photometrically)
Experimental: 12. Mycosphaerella arachidis (Cercospora arachidicola)/Liquid Culture (Early Leaf Spot): Conidia of the fungus from cryogenic storage were directly mixed into nutrient broth (PDB potato dextrose broth). After placing a DMSO solution of test compound into a 96-well microtiter plate at an application rate of 200 ppm, the nutrient broth containing the fungal spores was added. The test plates were incubated at 24° C. and the inhibition of growth was determined photometrically 4-5 days after application.

[3] = tested on: Mycosphaerella graminicola (Septoria tritici); assay: Mycosphaerella graminicola (Septoria tritici) / liquid culture (Septoria blotch); format: cell-based; details: Zymoseptoria tritici, PDB potato dextrose broth, 24° C., 4-5 days after application, read-out: disease control (inhibition of growth determined photometrically)
Experimental: 13. Mycosphaerella graminicola (Septoria tritici)/Liquid Culture (Septoria Blotch): Conidia of the fungus from cryogenic storage were directly mixed into nutrient broth (PDB potato dextrose broth). After placing a DMSO solution of test compound into a 96-well microtiter plate at an application rate of 200 ppm, the nutrient broth containing the fungal spores was added. The test plates were incubated at 24° C. and the inhibition of growth was determined photometrically 4-5 days after application.

[4] = tested on: Plasmopara viticola; assay: whole plant or invertebrate; format: in vivo; details: foliar, read-out: disease control
[5] = tested on: Gaeumannomyces graminis; assay: Gaeumannomyces graminis / liquid culture (take-all of cereals); format: cell-based; details: PDB potato dextrose broth, 24° C., 4-5 days after application, read-out: disease control (inhibition of growth determined photometrically)
Experimental: 14. Gaeumannomyces graminis/Liquid Culture (Take-all of Cereals): Mycelial fragments of the fungus from cryogenic storage were directly mixed into nutrient broth (PDB potato dextrose broth). After placing a DMSO solution of test compound into a 96-well microtiter plate at an application rate of 200 ppm, the nutrient broth […], containing the fungal spores is added. The test plates were incubated at 24° C. and the inhibition of growth was determined photometrically 4-5 days after application.

[6] = tested on: Monographella nivalis (Microdochium nivale); assay: Monographella nivalis (Microdochium nivale) / liquid culture (foot rot cereals); format: cell-based; details: PDB potato dextrose broth, 24° C., 4-5 days after application, read-out: disease control (inhibition of growth determined photometrically)
[7] = tested on: Thanatephorus cucumeris (Rhizoctonia solani); assay: Thanatephorus cucumeris (Rhizoctonia solani) / liquid culture (foot rot, damping-off); format: cell-based; details: PDB potato dextrose broth, 24° C., 3-4 days after application, read-out: disease control (inhibition of growth determined photometrically)
Experimental: 17. Thanatephorus cucumeris (Rhizoctonia solani)/Liquid Culture (Foot Rot, Damping-Off): Mycelia fragments of a newly grown liquid culture of the fungus were directly mixed into nutrient broth (PDB potato dextrose broth). After placing a DMSO solution of the test compounds into a 96-well microtiter plate at an application rate of 200 ppm, the nutrient broth containing the fungal material was added. The test plates were incubated at 24° C. and the inhibition of growth was determined photometrically 3-4 days after application.

O=C(NCc1ccccc1)c1cc2c(cc1F)COB2O [Compound 104]
≥ 80%: inhibition at 200 ppm [1] | inhibition at 200 ppm [2]

O=C(Nc1ccc2ccccc2n1)c1cc2c(cc1Cl)COB2O [Compound 154]
≥ 80%: inhibition at 200 ppm [1] | inhibition at 200 ppm [3]

O=C(Nc1ccc2ccccc2n1)c1cc2c(cc1F)COB2O [Compound 179]
≥ 80%: pest or weed control at 200 ppm [4] | inhibition at 200 ppm [1] | inhibition at 200 ppm [3] | inhibition at 200 ppm [5] | inhibition at 200 ppm [6]

O=C(NCc1ccccc1)c1ccc2c(c1)B(O)OC2 [Compound 261]
≥ 80%: pest or weed control at 200 ppm [4] | inhibition at 200 ppm [1] | inhibition at 200 ppm [2]

O=C(NCCOc1ccccc1)c1ccc2c(c1)B(O)OC2 [Compound 267]
≥ 80%: inhibition at 200 ppm [1] | inhibition at 200 ppm [2]

COc1ccc(CNC(=O)c2ccc3c(c2)B(O)OC3)cc1 [Compound 271]
≥ 80%: pest or weed control at 200 ppm [4] | inhibition at 200 ppm [1] | inhibition at 200 ppm [2]

Cc1csc(NC(=O)c2ccc3c(c2)B(O)OC3)n1 [Compound 298]
≥ 80%: pest or weed control at 200 ppm [4] | inhibition at 200 ppm [1] | inhibition at 200 ppm [2]

CC(=O)c1sc(NC(=O)c2ccc3c(c2)B(O)OC3)nc1C [Compound 302]
≥ 80%: inhibition at 200 ppm [1] | inhibition at 200 ppm [2]

O=C(OC(CF)CF)c1ccc2c(c1)B(O)OC2 [Compound 311]
≥ 80%: pest or weed control at 200 ppm [4] | inhibition at 200 ppm [1] | inhibition at 200 ppm [2] | inhibition at 200 ppm [6] | inhibition at 200 ppm [7]

O=C(OCC1CCSCC1)c1ccc2c(c1)B(O)OC2 [Compound 319]
≥ 80%: inhibition at 200 ppm [1] | inhibition at 200 ppm [2] | inhibition at 200 ppm [3] | inhibition at 200 ppm [6] | inhibition at 200 ppm [7]

O=C(OCC(Cl)(Cl)Cl)c1ccc2c(c1)B(O)OC2 [Compound 321]
≥ 80%: inhibition at 200 ppm [1] | inhibition at 200 ppm [3] | inhibition at 200 ppm [5] | inhibition at 200 ppm [6] | inhibition at 200 ppm [7]

CCCCSCCOC(=O)c1ccc2c(c1)B(O)OC2 [Compound 324]
≥ 80%: pest or weed control at 200 ppm [4] | inhibition at 200 ppm [1] | inhibition at 200 ppm [2] | inhibition at 200 ppm [3] | inhibition at 200 ppm [5] | inhibition at 200 ppm [6] | inhibition at 200 ppm [7]

O=C(OCCCF)c1ccc2c(c1)B(O)OC2 [Compound 330]
≥ 80%: pest or weed control at 200 ppm [4] | inhibition at 200 ppm [1] | inhibition at 200 ppm [2] | inhibition at 200 ppm [5] | inhibition at 200 ppm [6] | inhibition at 200 ppm [7]

O=C(OCc1cccc2ccccc12)c1ccc2c(c1)B(O)OC2 [Compound 333]
≥ 80%: inhibition at 200 ppm [1] | inhibition at 200 ppm [2] | inhibition at 200 ppm [3] | inhibition at 200 ppm [6]

O=C(OCC1CCCO1)c1ccc2c(c1)B(O)OC2 (centres unmarked) [Compound 337]
≥ 80%: pest or weed control at 200 ppm [4] | inhibition at 200 ppm [1] | inhibition at 200 ppm [2] | inhibition at 200 ppm [6] | inhibition at 200 ppm [7]

O=C(OCc1ncc(C(F)(F)F)cc1Cl)c1ccc2c(c1)B(O)OC2 [Compound 347]
≥ 80%: inhibition at 200 ppm [1] | inhibition at 200 ppm [2] | inhibition at 200 ppm [5]

COCCOC(=O)c1ccc2c(c1)B(O)OC2 [Compound 350]
≥ 80%: inhibition at 200 ppm [1] | inhibition at 200 ppm [2] | inhibition at 200 ppm [6] | inhibition at 200 ppm [7]

O=C(OCCCCc1ccc2ccccc2c1)c1ccc2c(c1)B(O)OC2 [Compound 353]
≥ 80%: inhibition at 200 ppm [2] | inhibition at 200 ppm [5]

O=C(OC1CCOC1)c1ccc2c(c1)B(O)OC2 (centres unmarked) [Compound 364]
≥ 80%: pest or weed control at 200 ppm [4] | inhibition at 200 ppm [1] | inhibition at 200 ppm [7]

O=C(OC1CCOCC1)c1ccc2c(c1)B(O)OC2 [Compound 366]
≥ 80%: pest or weed control at 200 ppm [4] | inhibition at 200 ppm [1] | inhibition at 200 ppm [2] | inhibition at 200 ppm [7]

O=C(OC(CF)CF)c1cc2c(cc1F)COB2O [Compound 368]
≥ 80%: pest or weed control at 200 ppm [4] | inhibition at 200 ppm [1] | inhibition at 200 ppm [6] | inhibition at 200 ppm [7]

COCCOCCOCCOC(=O)c1ccc2c(c1)B(O)OC2 [Compound 371]
≥ 80%: inhibition at 200 ppm [1] | inhibition at 200 ppm [2]

O=C(OCC(F)(F)Cl)c1cc2c(cc1F)COB2O [Compound 374]
≥ 80%: pest or weed control at 200 ppm [4] | inhibition at 200 ppm [1] | inhibition at 200 ppm [3] | inhibition at 200 ppm [5] | inhibition at 200 ppm [6] | inhibition at 200 ppm [7]

C[Si](C)(C)CCCOC(=O)c1cc2c(cc1F)COB2O [Compound 377]
≥ 80%: inhibition at 200 ppm [1] | inhibition at 200 ppm [2] | inhibition at 200 ppm [3] | inhibition at 200 ppm [5] | inhibition at 200 ppm [6] | inhibition at 200 ppm [7]

CC(F)COC(=O)c1cc2c(cc1F)COB2O (centres unmarked) [Compound 396]
≥ 80%: pest or weed control at 200 ppm [4] | inhibition at 200 ppm [1] | inhibition at 200 ppm [2] | inhibition at 200 ppm [6] | inhibition at 200 ppm [7]

O=C(COC(=O)c1cc2c(cc1F)COB2O)c1ccccc1 [Compound 397]
≥ 80%: pest or weed control at 200 ppm [4] | inhibition at 200 ppm [1] | inhibition at 200 ppm [3] | inhibition at 200 ppm [6] | inhibition at 200 ppm [7]

O=C(OCc1ccco1)c1cc2c(cc1F)COB2O [Compound 398]
≥ 80%: pest or weed control at 200 ppm [4] | inhibition at 200 ppm [1] | inhibition at 200 ppm [2] | inhibition at 200 ppm [6] | inhibition at 200 ppm [7]

C#CC(OC(=O)c1cc2c(cc1F)COB2O)c1ccccc1 (centres unmarked) [Compound 399]
≥ 80%: pest or weed control at 200 ppm [4] | inhibition at 200 ppm [1] | inhibition at 200 ppm [3] | inhibition at 200 ppm [5] | inhibition at 200 ppm [6] | inhibition at 200 ppm [7]

O=C(OCC1CCCO1)c1cc2c(cc1F)COB2O (centres unmarked) [Compound 400]
≥ 80%: pest or weed control at 200 ppm [4] | inhibition at 200 ppm [1] | inhibition at 200 ppm [7]

O=C(OCc1ccc(C(F)(F)F)nc1)c1cc2c(cc1F)COB2O [Compound 405]
≥ 80%: inhibition at 200 ppm [1] | inhibition at 200 ppm [2] | inhibition at 200 ppm [6] | inhibition at 200 ppm [7]

O=C(OCCCCc1ccc2ccccc2c1)c1cc2c(cc1F)COB2O [Compound 415]
≥ 80%: inhibition at 200 ppm [2] | inhibition at 200 ppm [5] | inhibition at 200 ppm [6] | inhibition at 200 ppm [7]

O=C(OC1CCCCC1)c1cc2c(cc1F)COB2O [Compound 417]
≥ 80%: pest or weed control at 200 ppm [4] | inhibition at 200 ppm [1] | inhibition at 200 ppm [3] | inhibition at 200 ppm [5] | inhibition at 200 ppm [6] | inhibition at 200 ppm [7]

Reference: US20170000133A1, “BENZOXABOROLE FUNGICIDES” (SYNGENTA PARTICIPATIONS AG, priority 2013, published 2017)
